From patent US6699716B2, “In vivo induction for enhanced function of isolated hepatocytes” (priority 1999, dated 2004)

Legend:
CYPIIB1 [1] = assay: PROD conversion to resorufin by in vitro induced hepatocytes; type: cell-based, porcine
Protocol: (§1) For comparison, in vitro induced hepatocyte cultures were prepared. Hepatocytes were procured using the method described above but from non-induced pigs and then induced in culture. Cells were plated onto 60 mm tissue culture dishes (Corning, Corning, N.Y.) in Williams' E media supplemented with 1% NBCS (newborn calf serum), 4.5 g/L glucose, 0.5 U/ml bovine insulin, 7 ng/ml glucagon, 7.5 μg/ml hydrocortisone, 10 mM HEPES (Sigma), 20 ng/ml EGF, […] (Life Technologies), 10 IU/ml penicillin and 10 μ/ml streptomycin (BioWhittaker). […]
(§2) To measure increased isozyme activity in both in vivo and in vitro induced cultures compared to non-induced controls, both in vivo induced and in vitro induced cultures from Example 1 were incubated with EROD, MROD, PROD or BROD (Molecular Probes) at 5 μM (in Williams' E media without serum and phenol red). […] Samples were analyzed in a Turner 450 fluorometer at 540ex and 585em nm. Resorufin formation was quantified using a standard curve that was linear from 0.5 to 130 nM and data are expressed as net resorufin gain over background fluorescence. In this assay, conversion of the alkoxyresorufins to resorufin corresponds to an increase in fluorescence such that the ratio of fluorescences, or activity, corresponds directly to the level of P450 activity of a particular set of isoenzymes.

CYPIA2 [2] = assay: Lidocaine clearance by in vivo induced hepatocytes; set-up: species or system porcine; conditions: Lidocaine substrate (clearance), 40 to 80 mg/kg
Protocol: A series of in vivo induction studies utilized various doses and injection regimes ranging from 40 to 80 mg/kg on days −4 to −1 with phenobarbital in PBS; 3-methlycholanthrene (in DMSO or benzene);or, β-naphthoflavone (in DMSO) given at 5 to 15 mg/kg on days −3, −2 and/or −1 prior to surgical removal of the liver. Yorkshire/Hampshire crossbred pigs weighing 8.3±3.0 kg were obtained from E M Parsons (Hadley, Mass.). All injections of induction agents were administered into the peritoneal cavity.
Cells were isolated using a modification of the Seglen method which has been described earlier (Seglen, P., Preparation of isolated rat liver cells, In Meth. in Cell. Bio. (D M Prescott, ed.), vol. 13. Academic Press (NY, N.Y.), 1976.). […] Viability was determined by Trypan blue exclusion and Calcein AM staining (Molecular Probes, Eugene, Oreg.). […]
Lidocaine (Paddock Laboratories Inc., Minneapolis, Minn.) clearance was assayed using a modification of the protocol of Nyberg et al. Pharmacokinetic analysis verifies P450function in in vitro and in vivo application of a bioartificial liver, ASAIO, 39:M252-M256, 1993. […] The reverse phase HPLC was carried out with a flow rate of 1 ml/minute on a Microsorb C8 column (Rainin Instrument Co., Woburn, Mass.) at room temperature and monitored at 214 nm. […]

CYPIIB2 [3] = assay: BROD conversion to resorufin by in vivo induced hepatocytes; set-up: species or system porcine
Protocol: (§3) Cells were isolated using a modification of the Seglen method which has been described earlier (Seglen, P., Preparation of isolated rat liver cells, In Meth. in Cell. Bio. (D M Prescott, ed.), vol. 13. Academic Press (NY, N.Y.), 1976.). Briefly, the exposed liver was cannulated and perfused in situ with cold Lactated Ringers (Baxter, Deerfield, Ill.) at 250 ml/minute before excision and transport to the lab. The liver was quickly warmed and perfused with 0.2% EDTA at 37° C. This was followed by perfusion of 1 mg/ml collagenase (Life Technologies, Grand Island, N.Y.) at 37° C. until digestion appeared complete (mean digestion 22±4 min). Further digestion was stopped with the addition of cold HBSS (BioWhittaker, Walkersville, Md.) supplemented with 10% NBCS (Hyclone, Logan, Utah). Undigested tissue and gall bladder were excised and the remainder of the tissue passed through 200 and 100 micron stainless steel sieves (Fisher Scientific, Pittsburgh, Pa.). The cell suspension was washed twice and the cell pellet resuspended in culture media. Viability was determined by Trypan blue exclusion and Calcein AM staining (Molecular Probes, Eugene, Oreg.). Hepatocytes derived from the isolation process following in vivo induction show lower viability when compared to control conditions (77% n=7 versus 89% n=40), yet the cells detoxify xenobiotics at a greater rate. Immediately after isolation, 10^6 cells were assayed for total protein with the BCA kit (Pierce Biochemical, Rockford, Ill.).
(§4) Cells were plated onto 60 mm tissue culture dishes at a density of 2×10^6 cells per dish (Corning, Corning, N.Y.) in Williams' E media supplemented with 1% NBCS (newborn calf serum), 4.5 g/L glucose, 0.5 U/ml bovine insulin, 7 ng/ml glucagon, 7.5 μg/ml hydrocortisone, 10 mM HEPES (Sigma), 20 ng/ml EGF, […] (Life Technologies), 10 IU/ml penicillin and 10 μg/ml streptomycin (BioWhittaker). Hepatocytes were incubated at 37° C. in humidified 10% CO2. Culture medium was changed on day 1 post-isolation and then every 2-3 days. Media samples taken at each change were stored for assay of albumin and urea.

CYPIIB1 [4] = assay: Diazepam clearance by in vivo induced hepatocytes; set-up: species or system porcine
Protocol: as §3, with “Ill.). […]” for “Ill.).”
Diazepam clearance was assayed in the cultures of Example 1 using a method similar to that of Jauregui et al. Xenobiotic induction of P-450 PB-4 (IIB1) and P-450c (IA1) and associated monooxygenase activities in primary cultures of adult rat hepatocytes. […] This reverse phase HPLC run was conducted at a flow rate of 1.0 ml/min through a micro-Bondpak C18 column (Waters) with absorbance set at 254 nm. […]

CYPIIB1 [5] = assay: PROD conversion to resorufin by in vivo induced hepatocytes; set-up: species or system porcine; conditions: for Degree of isozyme activity increase over noninduced control: PROD substrate, hepatocytes induced in vivo
Protocol: as §3, §4

CYPIIB2 [6] = assay: BROD conversion to resorufin by in vitro induced hepatocytes; type: cell-based, porcine
Protocol: as §1, §2

CYPIA2 [7] = assay: 7-Ethoxycoumarin metabolism by in vivo induced hepatocytes; set-up: species or system porcine
[8] = test system: CYPIIB2 and CYPIIB1 isozymes; assay: Maintenance of isozyme function four days after plating of in vivo induced hepatocytes; conditions: in vivo induced with 40 to 80 mg/kg once each day, 4 doses
Protocol: (§5) To measure increased isozyme activity in both in vivo and in vitro induced cultures compared to non-induced controls, both in vivo induced and in vitro induced cultures from Example 1 were incubated with EROD, MROD, PROD or BROD (Molecular Probes) at 5 μM (in Williams' E media without serum and phenol red). Dicumarol (80 μM, Sigma) was included in the incubation to limit cytosolic degradation of the resorufin end product. Samples were analyzed in a Turner 450 fluorometer at 540ex and 585em nm. Resorufin formation was quantified using a standard curve that was linear from 0.5 to 130 nM and data are expressed as net resorufin gain over background fluorescence. In this assay, conversion of the alkoxyresorufins to resorufin corresponds to an increase in fluorescence such that the ratio of fluorescences, or activity, corresponds directly to the level of P450 activity of a particular set of isoenzymes.

CYPIA2 [9] = assay: MROD conversion to resorufin by in vivo induced hepatocytes; set-up: species or system porcine; conditions: for Degree of isozyme activity increase over noninduced control: MROD substrate, hepatocytes induced in vivo, 10 to 15 mg/kg
Protocol: as §5

CYPIA1 [10] = assay: EROD conversion to resorufin by in vivo induced hepatocytes; set-up: species or system porcine; conditions: for Degree of isozyme activity increase over noninduced control: EROD substrate, hepatocytes induced in vivo, 10 to 15 mg/kg
Protocol: as §3
as §4, with “Media samples taken at each change were stored for assay of albumin and urea.” left out

CYPIA1 [11] = assay: EROD conversion to resorufin by in vitro induced hepatocytes; type: cell-based, porcine
Protocol: For comparison, in vitro induced hepatocyte cultures were prepared. Hepatocytes were procured using the method described above but from non-induced pigs and then induced in culture. Cells were plated onto 60 mm tissue culture dishes (Corning, Corning, N.Y.) in Williams' E media supplemented with 1% NBCS (newborn calf serum), 4.5 g/L glucose, 0.5 U/ml bovine insulin, 7 ng/ml glucagon, 7.5 μg/ml hydrocortisone, 10 mM HEPES (Sigma), 20 ng/ml EGF, […] (Life Technologies), 10 IU/ml penicillin and 10 μ/ml streptomycin (BioWhittaker). Experimental conditions were treated with culture medium containing any one of the following: 2 mM phenobarbital (PB; Sigma) for 96 hours, 50 μM β-naphthoflavone (BNF; Sigma) for 24 hours, or 5 μM 3-methlycholanthrene (3-MC; Sigma) for 24 hours.
as §5

CYPIA2 [12] = assay: MROD conversion to resorufin by in vitro induced hepatocytes; type: cell-based, porcine; conditions: in vitro induction 5 μM for 24 hours; two million hepatocytes, day 2 of culture
Protocol: as §1, §2

[13] = three daily injections in vivo, day one of culture, 2x10^6 cells on 60 mm dish

`CCC1(c2ccccc2)C(=O)NC(=O)NC1=O` [Phenobarbital, phenobarbital] was tested, and the “higher rate of PROD metabolism following treatment” value (CYPIIB1 [1]; in vitro induction 96 hours (2 mM), PROD, 3 hours incubation) was 3 fold, the “Degree of isozyme activity increase over noninduced control” value (shortened to “Degree of isozyme activity increase”) (CYPIA2 [2]) was 10 to 20-fold and the “Degree of isozyme activity increase” value (CYPIA2 [2]; listed as phenobarbital) was 10 to 20 fold. The “Degree of isozyme activity increase” value (CYPIIB2 [3]; BROD substrate, hepatocytes induced in vivo, 40 to 80 mg/kg) was 20 to 100-fold, the “rate of resorufin formation from the BROD substrate” value (CYPIIB2 [3]; in vivo induction, day 1) was “approximately 10.4 nM resorufin per minute” and the “increase in function following in vivo induction” value (CYPIIB2 [3]; [13]) was 70 fold. For the same compound, the “rate relative to average control rate of resorufin formed on day 1 from BROD” value (CYPIIB2 [3]; versus control 0.15 nM per minute) was 69 times, the “Degree of isozyme activity increase” value (CYPIIB1 [4]; Diazepam substrate, 40 to 80 mg/kg) was 20 to 50-fold and the “Degree of isozyme activity increase” value (CYPIIB1 [5]; 40 to 80 mg/kg) was 2 to 40-fold. The “upregulation following in vivo induction” value (CYPIIB1 [5]; [13]) was 38 fold, the “increase in function over noninduced controls” value (CYPIIB2 [6]; in vitro induction 96 hours (2 mM), BROD, 3 hours incubation, day 4 of culture) was 8.4 fold and the “rate of resorufin formation from the BROD substrate” value (CYPIIB2 [6]; in vitro induction, day 4) was “about 0.33 nM resorufin formed per minute”. For the same compound, the “Degree of isozyme activity increase” value (CYPIA2 [7]; 7-EC substrate, hepatocytes induced in vivo, 40 to 80 mg/kg) was 20 to 50-fold, the umbelliferone production rate (CYPIA2 [7]; in vivo induced, 24 hours after adding 7-ethoxycoumarin, noninduced 2.58±1.9) was 346±41.4 nM per hour and the “reduction of cytochrome P450 activity four days after plating” value [8] was “about 50%”.

For `Cc1ccc2cc3c(ccc4ccccc43)c3c2c1CC3` [3-Methylcholanthrene, 3-methylcholanthrene], the “effect on CYPIIB1 (upregulation)” value (CYPIIB1 [1]; in vitro induction) was “not observed”, the “Degree of isozyme activity increase” value (CYPIA2 [9]) was 2 to 10-fold and the “increase over noninduced controls” value (CYPIA2 [9]; in vivo induction, MROD) was 7.6 fold. The “Degree of isozyme activity increase” value (CYPIIB1 [4]; Diazepam substrate (clearance), 10 to 15 mg/kg) was 2 to 10-fold, the “Degree of isozyme activity increase” value (CYPIIB1 [4]; Diazepam substrate (clearance), 10 to 15 mg/kg, listed as 3-methlycholanthrene) was 2 to 10 fold and the “Degree of isozyme activity increase” value (CYPIIB1 [5]; 10 to 15 mg/kg) was 2 to 10-fold. For the same compound, the “upregulation of CYPIIB1 (PROD)” value (CYPIIB1 [5]; in vivo administration) was 8.4 fold, the “Degree of isozyme activity increase” value (CYPIA1 [10]) was 10 to 20-fold and the “increase over noninduced controls” value (CYPIA1 [10]; in vivo induction, EROD) was 24 fold. The “conversion rate relative to control rate” value (CYPIA1 [11]; in vitro induction 5 μM for 24 hours, two million hepatocytes, day 2 of culture) was 18 fold and the “conversion rate relative to control rate” value (CYPIA2 [12]) was 4 fold.

With `O=c1cc(-c2ccccc2)oc2ccc3ccccc3c12` [Beta-Naphthoflavone, beta-naphthoflavone] the “Degree of isozyme activity increase” value (CYPIA2 [9]) was 2 to 10-fold, the “Degree of isozyme activity increase” value (CYPIA1 [10]) was 2 to 10-fold and the “increase in function over control metabolic conversion of EROD” value (CYPIA1 [11]; in vitro induction 24 hours, 50 μM) was 14.8 fold. The “resorufin formed per minute” value (CYPIA1 [11]; in vitro induction 24 hours, 50 μM, EROD, control 0.27 nM) was 4.0 nM.
